Source: PubChem BioAssay (NCI)
“And” between values parts separate entries of the source, which are not always exact repeats. Equal values may be shown once.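 Step 1: Grow cells in 96-well plates. Step 2: Expose to compound for 48 hours at 5 concentrations. Step 3: Interpolate endpoints linearly; if unreached, use highest concentration. At the GI50, growth is halved. At the TGI there is no net growth.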

Tests used:
Experiment in all cases: growth of human tumour cells (NCI), 48 h
786-0 renal = test system: 786-0 renal
A498 renal = test system: A498 renal
A549 NSCLC = test system: A549 NSCLC
ACHN renal = test system: ACHN renal
BT-549 breast = test system: BT-549 breast
CAKI-1 renal = test system: CAKI-1 renal
CCRF-CEM leukemia = test system: CCRF-CEM leukemia
DLD-1 colon = test system: DLD-1 colon
DMS 114 small cell lung = test system: DMS 114 small cell lung
DU-145 prostate = test system: DU-145 prostate
EKVX NSCLC = test system: EKVX NSCLC
HCC-2998 colon = test system: HCC-2998 colon
HCT-116 colon = test system: HCT-116 colon
HCT-15 colon = test system: HCT-15 colon
HL-60(TB) leukemia = test system: HL-60(TB) leukemia
HOP-18 NSCLC = test system: HOP-18 NSCLC
HOP-62 NSCLC = test system: HOP-62 NSCLC
HOP-92 NSCLC = test system: HOP-92 NSCLC
HS 578T breast = test system: HS 578T breast
HT29 colon = test system: HT29 colon
IGROV1 ovarian = test system: IGROV1 ovarian
K-562 leukemia = test system: K-562 leukemia
KM12 colon = test system: KM12 colon
KM20L2 colon = test system: KM20L2 colon
LOX IMVI melanoma = test system: LOX IMVI melanoma
LXFL 529 NSCLC = test system: LXFL 529 NSCLC
M14 melanoma = test system: M14 melanoma
M19-MEL melanoma = test system: M19-MEL melanoma
MALME-3M melanoma = test system: MALME-3M melanoma
MDA-MB-231 breast = test system: MDA-MB-231 breast
MDA-MB-435 = test system: MDA-MB-435
MDA-N = test system: MDA-N
MOLT-4 leukemia = test system: MOLT-4 leukemia
NCI-H226 lung = test system: NCI-H226 lung
NCI-H23 lung = test system: NCI-H23 lung
NCI-H460 lung = test system: NCI-H460 lung
NCI-H522 lung = test system: NCI-H522 lung
NCI/ADR-RES ovarian = test system: NCI/ADR-RES ovarian
OVCAR-3 ovarian = test system: OVCAR-3 ovarian
OVCAR-4 ovarian = test system: OVCAR-4 ovarian
OVCAR-8 ovarian = test system: OVCAR-8 ovarian
PC-3 prostate = test system: PC-3 prostate
RPMI-8226 leukemia = test system: RPMI-8226 leukemia
RXF 393 renal = test system: RXF 393 renal
SF-268 CNS = test system: SF-268 CNS
SF-295 CNS = test system: SF-295 CNS
SF-539 CNS = test system: SF-539 CNS
SK-MEL-28 melanoma = test system: SK-MEL-28 melanoma
SK-MEL-5 melanoma = test system: SK-MEL-5 melanoma
SK-OV-3 ovarian = test system: SK-OV-3 ovarian
SN12C renal = test system: SN12C renal
SNB-19 CNS = test system: SNB-19 CNS
SNB-75 CNS = test system: SNB-75 CNS
SW-620 colon = test system: SW-620 colon
T-47D breast = test system: T-47D breast
TK-10 renal = test system: TK-10 renal
U251 CNS = test system: U251 CNS
UACC-257 melanoma = test system: UACC-257 melanoma
UACC-62 melanoma = test system: UACC-62 melanoma
UO-31 renal = test system: UO-31 renal
COLO 205 colon = test system: COLO 205 colon
DMS 273 small cell lung = test system: DMS 273 small cell lung
OVCAR-5 ovarian = test system: OVCAR-5 ovarian
SK-MEL-2 melanoma = test system: SK-MEL-2 melanoma
SNB-78 CNS = test system: SNB-78 CNS
MCF7 breast = test system: MCF7 breast
SR leukemia = test system: SR leukemia

## CC(=O)[O-].CC(=O)[O-].[Mn+2].c1ccc(/C(=N\Nc2ccccn2)c2ccccn2)cc1
786-0 renal
  GI50: 0.097 µM
  TGI: 13.8 µM
A498 renal
  TGI: 30.6 µM
A549 NSCLC
  TGI: 14.4 µM
ACHN renal
  TGI: 4.44 µM
BT-549 breast
  TGI: 14.4 µM
CAKI-1 renal
  GI50: 0.0393 µM
  TGI: 8.47 µM
CCRF-CEM leukemia
  TGI: 0.402 µM
DLD-1 colon
  TGI: 22.7 µM
DMS 114 small cell lung
  TGI: 0.0212 µM
DU-145 prostate
  TGI: 11.6 µM
EKVX NSCLC
  GI50: 0.0187 µM
  TGI: 19.9 µM
HCC-2998 colon
  TGI: 14.8 µM
HCT-116 colon
  TGI: 0.739 µM
HCT-15 colon
  GI50: 0.0432 µM
  TGI: 16.1 µM
HL-60(TB) leukemia
  GI50: 0.00173 µM
  TGI: 0.00504 µM
HOP-18 NSCLC
  TGI: 14.3 µM
HOP-62 NSCLC
  TGI: 5.69 µM
HOP-92 NSCLC
  GI50: 0.205 µM
  TGI: 11 µM
HS 578T breast
  TGI: 70.2 µM
HT29 colon
  GI50: 0.00276 µM
  TGI: 11.3 µM
IGROV1 ovarian
  GI50: 0.0271 µM and 0.141 µM
  TGI: 3.59 µM
K-562 leukemia
  GI50: 0.00305 µM
KM12 colon
  TGI: 13.7 µM
KM20L2 colon
  TGI: 15.8 µM
LOX IMVI melanoma
  TGI: 2.06 µM
LXFL 529 NSCLC
  TGI: 17.2 µM
M14 melanoma
  GI50: 0.0349 µM
  TGI: 1.38 µM
M19-MEL melanoma
  TGI: 14.3 µM
MALME-3M melanoma
  GI50: 0.0362 µM
  TGI: 16.8 µM
MDA-MB-231 breast
  GI50: 0.0399 µM
  TGI: 16.3 µM
MDA-MB-435
  TGI: 18.7 µM
MDA-N
  TGI: 22.5 µM
MOLT-4 leukemia
  GI50: 0.00103 µM
  TGI: 1.29 µM
NCI-H226 lung
  TGI: 3 µM
NCI-H23 lung
  GI50: 0.00784 µM
  TGI: 16.7 µM
NCI-H460 lung
  TGI: 1.14 µM
NCI-H522 lung
  GI50: 0.0289 µM
  TGI: 0.277 µM
NCI/ADR-RES ovarian
  GI50: 0.0251 µM
  TGI: 0.0989 µM
OVCAR-3 ovarian
  TGI: 0.00913 µM
OVCAR-4 ovarian
  TGI: 24.5 µM
OVCAR-8 ovarian
  TGI: 12.3 µM
PC-3 prostate
  TGI: 14.5 µM
RPMI-8226 leukemia
  TGI: 7.04 µM
RXF 393 renal
  TGI: 14 µM
SF-268 CNS
  TGI: 13.5 µM
SF-295 CNS
  TGI: 16.9 µM
SF-539 CNS
  TGI: 0.665 µM
SK-MEL-28 melanoma
  TGI: 19.7 µM
SK-MEL-5 melanoma
  GI50: 0.0567 µM
  TGI: 5.38 µM
SK-OV-3 ovarian
  GI50: 0.0509 µM
  TGI: 17.5 µM
SN12C renal
  TGI: 6.83 µM
SNB-19 CNS
  TGI: 16.7 µM
SNB-75 CNS
  TGI: 17.7 µM
SW-620 colon
  GI50: 0.0535 µM
  TGI: 14.5 µM
T-47D breast
  TGI: 12 µM
TK-10 renal
  TGI: 54.6 µM
U251 CNS
  TGI: 8.15 µM
UACC-257 melanoma
  GI50: 0.0496 µM
  TGI: 6.45 µM
UACC-62 melanoma
  TGI: 1.13 µM
UO-31 renal
  TGI: 3.88 µM

## COc1ccccc1/C=C/C(=O)c1sc(-c2cccnc2)nc1C
786-0 renal
  TGI: > 100 µM
A498 renal
  TGI: > 100 µM
A549 NSCLC
  TGI: > 100 µM
ACHN renal
  TGI: > 100 µM
CAKI-1 renal
  TGI: > 100 µM
CCRF-CEM leukemia
  TGI: > 100 µM
COLO 205 colon
  TGI: > 100 µM
DLD-1 colon
  TGI: > 100 µM
DMS 114 small cell lung
  TGI: > 100 µM
DMS 273 small cell lung
  TGI: > 100 µM
EKVX NSCLC
  TGI: > 100 µM
HCC-2998 colon
  TGI: > 100 µM
HCT-15 colon
  TGI: > 100 µM
HL-60(TB) leukemia
  TGI: > 100 µM
HOP-18 NSCLC
  TGI: > 100 µM
HOP-62 NSCLC
  TGI: > 100 µM
HOP-92 NSCLC
  TGI: > 100 µM
HT29 colon
  TGI: > 100 µM
IGROV1 ovarian
  TGI: > 100 µM
K-562 leukemia
  TGI: > 100 µM
KM12 colon
  TGI: > 100 µM
KM20L2 colon
  TGI: > 100 µM
LOX IMVI melanoma
  TGI: > 100 µM
M19-MEL melanoma
  TGI: > 100 µM
MALME-3M melanoma
  TGI: > 100 µM
MOLT-4 leukemia
  TGI: > 100 µM
NCI-H226 lung
  TGI: > 100 µM
NCI-H23 lung
  TGI: > 100 µM
NCI-H460 lung
  TGI: > 100 µM
NCI-H522 lung
  TGI: > 100 µM
OVCAR-3 ovarian
  TGI: > 100 µM
OVCAR-5 ovarian
  TGI: > 100 µM
OVCAR-8 ovarian
  TGI: > 100 µM
RPMI-8226 leukemia
  TGI: > 100 µM
RXF 393 renal
  TGI: > 100 µM
SF-268 CNS
  TGI: > 100 µM
SF-295 CNS
  TGI: > 100 µM
SF-539 CNS
  TGI: > 100 µM
SK-MEL-2 melanoma
  TGI: > 100 µM
SK-MEL-28 melanoma
  TGI: > 100 µM
SK-MEL-5 melanoma
  TGI: > 100 µM
SK-OV-3 ovarian
  TGI: > 100 µM
SN12C renal
  TGI: > 100 µM
SNB-75 CNS
  TGI: > 100 µM
SNB-78 CNS
  TGI: > 100 µM
SW-620 colon
  TGI: > 100 µM
TK-10 renal
  TGI: > 100 µM
U251 CNS
  TGI: > 100 µM
UACC-257 melanoma
  TGI: > 100 µM
UACC-62 melanoma
  TGI: > 100 µM
UO-31 renal
  TGI: > 100 µM

## O=C(O)CN1CCNCCN(CC(=O)O)CC1
786-0 renal
  TGI: > 100 µM
A498 renal
  TGI: > 68.7 µM
A549 NSCLC
  TGI: > 80 µM
ACHN renal
  TGI: > 100 µM
BT-549 breast
  TGI: > 100 µM
CAKI-1 renal
  TGI: > 100 µM
CCRF-CEM leukemia
  TGI: > 100 µM
COLO 205 colon
  TGI: 6.12 µM
DU-145 prostate
  TGI: > 100 µM
EKVX NSCLC
  TGI: > 100 µM
HCC-2998 colon
  TGI: 55.7 µM
HCT-116 colon
  TGI: > 37.3 µM
HCT-15 colon
  TGI: > 100 µM
HL-60(TB) leukemia
  TGI: > 28.6 µM
HOP-62 NSCLC
  TGI: > 100 µM
HOP-92 NSCLC
  TGI: > 100 µM
HS 578T breast
  TGI: > 100 µM
HT29 colon
  TGI: > 21.4 µM
IGROV1 ovarian
  TGI: > 100 µM
K-562 leukemia
  TGI: > 100 µM
KM12 colon
  TGI: > 100 µM
LOX IMVI melanoma
  TGI: > 100 µM
M14 melanoma
  TGI: > 100 µM
MALME-3M melanoma
  TGI: > 100 µM
MCF7 breast
  TGI: > 100 µM
MDA-MB-231 breast
  TGI: > 100 µM
MDA-MB-435
  TGI: > 100 µM
MDA-N
  TGI: > 100 µM
MOLT-4 leukemia
  TGI: > 100 µM
NCI-H226 lung
  TGI: > 42.9 µM
NCI-H23 lung
  TGI: 20.7 µM
NCI-H460 lung
  TGI: > 64.4 µM
NCI-H522 lung
  TGI: 30.7 µM
NCI/ADR-RES ovarian
  TGI: 7.3 µM
OVCAR-3 ovarian
  TGI: > 100 µM
OVCAR-4 ovarian
  TGI: > 100 µM
OVCAR-5 ovarian
  TGI: > 100 µM
OVCAR-8 ovarian
  TGI: 11.6 µM
PC-3 prostate
  TGI: > 100 µM
RPMI-8226 leukemia
  TGI: > 100 µM
RXF 393 renal
  TGI: > 100 µM
SF-268 CNS
  TGI: > 100 µM
SF-295 CNS
  TGI: > 100 µM
SF-539 CNS
  TGI: > 100 µM
SK-MEL-2 melanoma
  TGI: > 100 µM
SK-MEL-28 melanoma
  TGI: > 100 µM
SK-MEL-5 melanoma
  TGI: 39.5 µM
SK-OV-3 ovarian
  TGI: 98.4 µM
SN12C renal
  TGI: > 100 µM
SNB-19 CNS
  TGI: > 100 µM
SNB-75 CNS
  TGI: > 100 µM
SR leukemia
  TGI: > 29.4 µM
SW-620 colon
  TGI: > 100 µM
T-47D breast
  TGI: > 100 µM
TK-10 renal
  TGI: > 90.6 µM
U251 CNS
  TGI: > 100 µM
UACC-257 melanoma
  TGI: > 100 µM
UACC-62 melanoma
  TGI: > 100 µM
UO-31 renal
  TGI: > 100 µM
